Laboratory results published in patent US20020035061A1, “COMPOSITIONS AND METHODS FOR TREATING INFECTIONS USING CATIONIC PEPTIDES ALONE OR IN COMBINATION WITH ANTIBIOTICS” (priority 1996, published 2002).
≈ marks a conversion by molar mass, not a printed value. Read-outs that look alike come from different tables or passages of the source. Peptide text beside a SMILES is read from it.

Experiments:
Assay in all cases: microbe, parasite or virus in culture
Format in all cases: cell-based
S. aureus = test system: S. aureus
[1] = test system: microorganisms with acquired resistance; conditions: for Peptide MIC Alone: Ciprofloxacin section
bacterial isolates = conditions: for FIC: peptide + Ciprofloxacin
[2] = test system: inherently resistant microorganisms

CC[C@H](C)[C@H](NC(=O)[C@H](CC(C)C)NC(=O)[C@H](C)NC(=O)[C@@H]1CCCN1C(=O)[C@H](CC(C)C)NC(=O)[C@H](C)NC(=O)[C@@H](NC(=O)[C@@H](NC(=O)[C@@H](NC(=O)[C@@H](NC(=O)[C@H](CCCCN)NC(=O)[C@H](CCCCN)NC(=O)[C@H](CC(C)C)NC(=O)[C@@H](NC(=O)[C@H](CCCCN)NC(=O)[C@@H](NC(=O)[C@H](CC(C)C)NC(=O)[C@H](CC(N)=O)NC(=O)[C@H](CCCCN)NC(=O)[C@@H](NC(=O)[C@H](Cc1ccccc1)NC(=O)[C@H](CO)NC(=O)[C@H](CCCCN)NC(=O)[C@H](Cc1c[nH]c2ccccc12)NC(=O)[C@@H](N)CCCCN)[C@@H](C)CC)[C@@H](C)O)C(C)C)C(C)C)C(C)C)[C@@H](C)O)[C@@H](C)O)C(=O)N[C@@H](CO)C(=O)O [MBI 29A2] (H-KWKSFIKNLTKVLKKVVTTALPALIS-OH; N-terminus and C-terminus assumed)
Ciprofloxacin MIC + Peptide (S. aureus; S. aureus SA10): 0.5 µg/mL
Peptide MIC + Ciprofloxacin (S. aureus; S. aureus SA10): 2 µg/mL
Ciprofloxacin MIC + Peptide (S. aureus; S. aureus SA25): 0.5 µg/mL
Peptide MIC + Ciprofloxacin (S. aureus; S. aureus SA25): 1 µg/mL
Ciprofloxacin MIC + Peptide ([1]; P. aeruginosa PA41): 2 µg/mL
Peptide MIC + Ciprofloxacin ([1]; P. aeruginosa PA41): 4 µg/mL
Peptide MIC Alone ([1]; P. aeruginosa PA41): 8 µg/mL
Ciprofloxacin MIC + Peptide ([1]; P. aeruginosa PA77): 1 µg/mL
Peptide MIC + Ciprofloxacin ([1]; P. aeruginosa PA77): 8 µg/mL
Peptide MIC Alone ([1]; P. aeruginosa PA77): 16 µg/mL
Ciprofloxacin MIC + Peptide (bacterial isolates; P. aeruginosa PA24): 16 µg/mL
Peptide MIC + Ciprofloxacin (bacterial isolates; P. aeruginosa PA24): 8 µg/mL
Ciprofloxacin MIC + Peptide (bacterial isolates; S. aureus SA10): 0.5 µg/mL
Peptide MIC + Ciprofloxacin (bacterial isolates; S. aureus SA10): 2 µg/mL
Ciprofloxacin MIC + Peptide (bacterial isolates; S. aureus SA93): 8 µg/mL
Peptide MIC + Ciprofloxacin (bacterial isolates; S. aureus SA93): 0.5 µg/mL
FIC (bacterial isolates; P. aeruginosa PA24): 0.63
FIC (bacterial isolates; S. aureus SA10): 0.52
FIC (bacterial isolates; S. aureus SA93): 0.50

C/C(=C\C(=O)OCCCCCCCCC(=O)O)C[C@@H]1OC[C@H](C[C@@H]2O[C@H]2[C@@H](C)[C@H](C)O)[C@@H](O)[C@H]1O [Mupirocin]
MIC (S. aureus; Staphylococcus aureus, S. aureus SBSA4, read-out: Mupirocin MIC Alone): > 100 µg/mL
MIC comb. (antibiotic agent) ([1]; E. faecium, with MBI 11CN): 0.1 µg/mL (≈ 0.2 µM)
MIC comb. (antibiotic agent) ([1]; E. faecium, with MBI 11G13CN): 0.1 µg/mL (≈ 0.2 µM)
MIC ([1]; Enterococcus faecium, read-out: MIC alone (antibiotic agent), E. faecium): 100 µg/mL (≈ 200 µM)
MIC comb. (antibiotic agent) ([1]; S. aureus, with MBI 11A1CN): 1 µg/mL (≈ 2 µM)
MIC comb. (antibiotic agent) ([1]; S. aureus, with MBI 11CN): 0.1 µg/mL (≈ 0.2 µM)
MIC comb. (antibiotic agent) ([1]; S. aureus, with MBI 11D18CN): 0.1 µg/mL (≈ 0.2 µM)
MIC comb. (antibiotic agent) ([1]; S. aureus, with MBI 11F1CN): 3 µg/mL (≈ 5.99 µM)
MIC comb. (antibiotic agent) ([1]; S. aureus, with MBI 21A1): 0.1 µg/mL (≈ 0.2 µM)
MIC comb. (antibiotic agent) ([1]; S. aureus, with MBI 21A2): 0.1 µg/mL (≈ 0.2 µM)
MIC comb. (antibiotic agent) ([1]; S. aureus, with MBI 21A10): 0.3 µg/mL (≈ 0.599 µM)
MIC comb. (antibiotic agent) ([1]; S. aureus, with MBI 26): 0.1 µg/mL (≈ 0.2 µM)
MIC comb. (antibiotic agent) ([1]; S. aureus, with MBI 29A3): 0.1 µg/mL (≈ 0.2 µM)
MIC ([1]; Staphylococcus aureus, read-out: MIC alone (antibiotic agent), S. aureus): > 100 µg/mL
MIC ([2]; Escherichia coli, read-out: Mupirocin MIC Alone, E. coli): 100 µg/mL (≈ 200 µM)
MIC ([2]; Pseudomonas aeruginosa, read-out: Mupirocin MIC + Peptide, P. aeruginosa, peptide MBI 28): 3 µg/mL
MIC ([2]; Pseudomonas aeruginosa, read-out: Mupirocin MIC + Peptide, P. aeruginosa, peptide MBI 29A3): 0.1 µg/mL
MIC ([2]; Pseudomonas aeruginosa, read-out: Mupirocin MIC Alone, P. aeruginosa): > 100 µg/mL
MIC ([2]; read-out: Mupirocin MIC + Peptide, E. coli, peptide MBI 11B4CN): 3 µg/mL
MIC ([2]; read-out: Mupirocin MIC + Peptide, E. coli, peptide MBI 11D18CN): 1 µg/mL
MIC ([2]; read-out: Mupirocin MIC + Peptide, E. coli, peptide MBI 21A1): 3 µg/mL
MIC ([2]; read-out: Mupirocin MIC + Peptide, E. coli, peptide MBI 26): 3 µg/mL
MIC ([2]; read-out: Mupirocin MIC + Peptide, E. coli, peptide MBI 28): 0.1 µg/mL
MIC (bacterial isolates; Escherichia coli, read-out: Mupirocin MIC Alone, E. coli ECO1): > 100 µg/mL
MIC (bacterial isolates; Escherichia coli, read-out: Mupirocin MIC Alone, E. coli ECO2): 100 µg/mL (≈ 200 µM)
MIC (bacterial isolates; Escherichia coli, read-out: Mupirocin MIC Alone, E. coli ECO3): 100 µg/mL (≈ 200 µM)
MIC (bacterial isolates; Escherichia coli, read-out: Mupirocin MIC Alone, E. coli ECO5): 100 µg/mL (≈ 200 µM)
MIC (bacterial isolates; Escherichia coli, read-out: Mupirocin MIC Alone, E. coli SBECO1): 100 µg/mL (≈ 200 µM)
MIC (bacterial isolates; Escherichia coli, read-out: Mupirocin MIC Alone, E. coli SBECO2): > 100 µg/mL
MIC (bacterial isolates; Pseudomonas aeruginosa, read-out: Mupirocin MIC Alone, P. aeruginosa PA2): > 100 µg/mL
MIC (bacterial isolates; Pseudomonas aeruginosa, read-out: Mupirocin MIC Alone, P. aeruginosa PA3): > 100 µg/mL
MIC (bacterial isolates; Pseudomonas aeruginosa, read-out: Mupirocin MIC Alone, P. aeruginosa PA4): > 100 µg/mL
MIC (bacterial isolates; Pseudomonas aeruginosa, read-out: Mupirocin MIC Alone, P. aeruginosa SBPA1): > 100 µg/mL
MIC (bacterial isolates; Serratia marcescens, read-out: Mupirocin MIC Alone, S. marcescens SBSM1): > 100 µg/mL
MIC (bacterial isolates; Serratia marcescens, read-out: Mupirocin MIC Alone, S. marcescens SBSM2): > 100 µg/mL
MIC (bacterial isolates; Staphylococcus aureus, read-out: Mupirocin MIC Alone, S. aureus SBSA3): 100 µg/mL (≈ 200 µM)
MIC (bacterial isolates; Staphylococcus aureus, read-out: Mupirocin MIC Alone, S. aureus SBSA4): > 100 µg/mL
